Read-outs that look alike come from different tables or passages of the source. One block for each molecule: values may come before it.
Columns and labels:
[1] = test system: carrot (Daucus carota L. cv Danvers) aspartokinase form I (AKI, Peak I; lysine-sensitive) of the bifunctional AK-HSDH protein; test: Aspartokinase activity, hydroxamate method (first eluting DEAE peak, AKI); assay type: biochemical; details: for % Control AK activity +lys (10 mM): 10 mM lysine; for % Control AK activity +thr (10 mM): 10 mM threonine
Protocol: Aspartokinase activity was assayed by the hydroxamate method as described in P. Bryan et al., Biochem Biophys Res Comm 41: 1211-1217 (1970). […] The reaction was terminated by the addition of a solution of 0.37 M FeCl3, 0.20 M trichloroacetic aid and 0.72 M HCl. One unit (U) of activity produced 1 umol β-aspartylphosphate hr^-1. Zero time controls were included.

[2] = target: T1, carrot (Daucus carota L. cv Danvers) aspartokinase form II (AKII, Peak II; threonine-sensitive) of the bifunctional AK-HSDH protein (Daucus carota, UniProt P37142); test: Aspartokinase activity, hydroxamate method (second eluting DEAE peak, AKII); assay type: biochemical
T1 construct: AK was purified by a series of column chromatography steps; endogenous in cells; host or cells: carrot (Daucus carota L. cv Danvers) cell suspension culture, protein partly purified by gel filtration and DEAE chromatography
T1 sequence (P37142 88-921): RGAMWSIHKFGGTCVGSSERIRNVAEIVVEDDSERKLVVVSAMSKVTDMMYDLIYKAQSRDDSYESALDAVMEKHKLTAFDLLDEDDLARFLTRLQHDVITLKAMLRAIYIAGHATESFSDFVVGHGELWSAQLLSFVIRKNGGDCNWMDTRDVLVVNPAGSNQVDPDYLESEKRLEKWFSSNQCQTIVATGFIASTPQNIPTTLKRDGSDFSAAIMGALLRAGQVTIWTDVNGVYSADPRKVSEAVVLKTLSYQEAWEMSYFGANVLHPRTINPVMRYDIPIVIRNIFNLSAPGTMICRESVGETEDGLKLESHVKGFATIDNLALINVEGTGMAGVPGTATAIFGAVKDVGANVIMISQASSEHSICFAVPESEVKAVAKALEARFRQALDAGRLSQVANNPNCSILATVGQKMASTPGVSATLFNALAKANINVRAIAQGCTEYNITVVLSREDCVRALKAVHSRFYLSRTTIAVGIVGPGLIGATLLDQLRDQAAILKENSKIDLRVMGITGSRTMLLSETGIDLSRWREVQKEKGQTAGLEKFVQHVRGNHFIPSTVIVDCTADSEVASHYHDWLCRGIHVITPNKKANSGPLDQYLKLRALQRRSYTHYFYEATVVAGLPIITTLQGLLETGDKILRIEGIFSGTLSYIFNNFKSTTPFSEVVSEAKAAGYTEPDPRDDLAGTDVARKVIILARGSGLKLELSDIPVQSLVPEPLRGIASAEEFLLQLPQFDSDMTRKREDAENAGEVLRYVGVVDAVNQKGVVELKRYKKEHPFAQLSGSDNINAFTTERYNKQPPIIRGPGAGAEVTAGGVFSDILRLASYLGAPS
Protocol: (§1) The first eluting peak (28-32 min), AKI, was inhibited by lysine and was relatively insensitive to threonine (See Table II). The second peak (44-48 min), AKII, was inhibited by threonine and was relatively insensitive to lysine. These two peaks were kinetically different as well as having different feedback inhibition patterns. The Km(asp) for AKI was approximately 1 mM and for AKII was approximately 9 mM. Experimental conditions could affect which AK activities were observed. AK activity inhibited by lysine was not observed unless lysine was added to the homogenization buffer. If the pH of the sample was lowered to pH 6 before anion exchange, sensitivity to lysine was lost, although the total amount of AK activity remained unchanged. […] Furthermore, the lysine-sensitive activity could not be eluted from the cation-exchange medium with KC1.
AK was purified by a series of column chromatography steps. The cells were harvested after 5 days and disrupted in a nitrogen bomb as described for HSDH (B. Matthews (1989), supra) except that the threonine concentration was reduced to 1 mM and 1 mM lysine was added to the extraction buffer. The crude extract was concentrated by 60% ammonium sulfate before the first gel filtration through Biogel A-0.5 m (4.5 cm×47 cm) equilibrated with 50 mM Tris-HCl pH 7.5, 10 mM 2-mercaptoethanol, 1 mM EDTA, 1 mM lysine, 1 mM threonine and 20% glycerol. Fractions containing AK activity were combined, concentrated by the addition of an equal volume of saturated ammonium sulfate for a second gel filtration through Sephadex G-150 (2.5 cm×39 cm) and equilibrated with the same buffer plus 0.2 M KC1. Fractions with AK activity were combined, concentrated by the addition of an equal volume of saturated ammonium sulfate and dialyzed against 16 mM Tris-HCl pH 7.5, 10 mM 2-mercaptoethanol, 1 mM lysine, 1 mM threonine and 20% glycerol. The dialyzed sample was loaded onto an Altex Spherogel TSK DEAE-5PW column (21.5 mm×15 cm). AK activity was eluted over 65 min with a gradient from 0-0.5 M KCl in 20 mM Mes pH 6, 5 mM 2-mercaptoethanol, 1 mM lysine, 1 mM threonine, and 20% glycerol. Fractions containing activity were combined, diluted four-fold and applied to an Altex Spherogel TSK DEAE-5PW column (7.5 mm×7.5 cm) equilibrated with 50 mM Tris-HCl pH 7.5 containing 5 mM 2-mercaptoethanol,1 mM lysine, 1 mM threonine and 20% glycerol fractions containing AK activity were combined and diluted four-fold and reapplied to the column equilibrated with the same buffer containing 20 mM aspartate. Fractions with AK activity were concentrated by filtration through Centricon-303 filters (Amicon) and stored at -20° C.
Aspartokinase activity was assayed by the hydroxamate method as described in P. Bryan et al., Biochem Biophys Res Comm 41: 1211-1217 (1970). […]

[3] = substrate: N[C@@H](CC(=O)O)C(=O)O; test: as above; assay type: biochemical, Daucus carota; details: other: AKII, second peak (44-48 min) from DEAE pH 6, 37.0 °C
Protocol: as §1
AK was purified by a series of column chromatography steps. The cells were harvested after 5 days and disrupted in a nitrogen bomb as described for HSDH (B. Matthews (1989), supra) except that the threonine concentration was reduced to 1 mM and 1 mM lysine was added to the extraction buffer. The crude extract was concentrated by 60% ammonium sulfate before the first gel filtration through Biogel A-0.5 m (4.5 cm×47 cm) equilibrated with 50 mM Tris-HCl pH 7.5, 10 mM 2-mercaptoethanol, 1 mM EDTA, 1 mM lysine, 1 mM threonine and 20% glycerol. […]

Molecule: NCCCC[C@H](N)C(=O)O [lys, lysine]
% Control AK activity +lys (10 mM) ([1]; prep ak32I): 21 % Control
% Control AK activity +lys (10 mM) ([1]; prep ak33I): 39 % Control
remaining activity at 10000 µM ([2]; read-out: % Control AK activity +lys (10 mM), prep ak33II, 10 mM lysine): 75%
remaining activity at 10000 µM ([2]; read-out: % Control AK activity +lys (10 mM), prep ak45II, 10 mM lysine): 91%

% Control AK activity +thr (10 mM) ([1]; prep ak32I): 68 % Control
% Control AK activity +thr (10 mM) ([1]; prep ak33I): 71 % Control
remaining activity at 10000 µM ([2]; prep ak33II, 10 mM threonine, read-out: % Control AK activity +thr (10 mM)): 32%
remaining activity at 10000 µM ([2]; prep ak45II, 10 mM threonine, read-out: % Control AK activity +thr (10 mM)): 33%
Molecule: C[C@@H](O)[C@H](N)C(=O)O [thr, threonine]

B1: carrot (Daucus carota L. cv Danvers) aspartokinase form II (AKII, Peak II; threonine-sensitive) of the bifunctional AK-HSDH protein (Daucus carota) (protein)
chain: RGAMWSIHKFGGTCVGSSERIRNVAEIVVEDDSERKLVVVSAMSKVTDMMYDLIYKAQSRDDSYESALDAVMEKHKLTAFDLLDEDDLARFLTRLQHDVITLKAMLRAIYIAGHATESFSDFVVGHGELWSAQLLSFVIRKNGGDCNWMDTRDVLVVNPAGSNQVDPDYLESEKRLEKWFSSNQCQTIVATGFIASTPQNIPTTLKRDGSDFSAAIMGALLRAGQVTIWTDVNGVYSADPRKVSEAVVLKTLSYQEAWEMSYFGANVLHPRTINPVMRYDIPIVIRNIFNLSAPGTMICRESVGETEDGLKLESHVKGFATIDNLALINVEGTGMAGVPGTATAIFGAVKDVGANVIMISQASSEHSICFAVPESEVKAVAKALEARFRQALDAGRLSQVANNPNCSILATVGQKMASTPGVSATLFNALAKANINVRAIAQGCTEYNITVVLSREDCVRALKAVHSRFYLSRTTIAVGIVGPGLIGATLLDQLRDQAAILKENSKIDLRVMGITGSRTMLLSETGIDLSRWREVQKEKGQTAGLEKFVQHVRGNHFIPSTVIVDCTADSEVASHYHDWLCRGIHVITPNKKANSGPLDQYLKLRALQRRSYTHYFYEATVVAGLPIITTLQGLLETGDKILRIEGIFSGTLSYIFNNFKSTTPFSEVVSEAKAAGYTEPDPRDDLAGTDVARKVIILARGSGLKLELSDIPVQSLVPEPLRGIASAEEFLLQLPQFDSDMTRKREDAENAGEVLRYVGVVDAVNQKGVVELKRYKKEHPFAQLSGSDNINAFTTERYNKQPPIIRGPGAGAEVTAGGVFSDILRLASYLGAPS
notes: AK was purified by a series of column chromatography steps; The cells were harvested after 5 days; endogenous in cells; host or cells: carrot (Daucus carota L. cv Danvers) cell suspension culture, protein partly purified by gel filtration and DEAE chromatography
Km [3]: 9 mM

From patent publication US5451516A, “Bifunctional protein from carrots (Daucus carota) with aspartokinase and homoserine dehydrogenase activities” (priority 1991, dated 1995)
